pEC50: −log10 of the molar value.
Molecular target: T1, human M4 muscarinic acetylcholine receptor (Homo sapiens, UniProt P08173)
T1 construct: expressed in transfected cells
T1 sequence (P08173 1-479): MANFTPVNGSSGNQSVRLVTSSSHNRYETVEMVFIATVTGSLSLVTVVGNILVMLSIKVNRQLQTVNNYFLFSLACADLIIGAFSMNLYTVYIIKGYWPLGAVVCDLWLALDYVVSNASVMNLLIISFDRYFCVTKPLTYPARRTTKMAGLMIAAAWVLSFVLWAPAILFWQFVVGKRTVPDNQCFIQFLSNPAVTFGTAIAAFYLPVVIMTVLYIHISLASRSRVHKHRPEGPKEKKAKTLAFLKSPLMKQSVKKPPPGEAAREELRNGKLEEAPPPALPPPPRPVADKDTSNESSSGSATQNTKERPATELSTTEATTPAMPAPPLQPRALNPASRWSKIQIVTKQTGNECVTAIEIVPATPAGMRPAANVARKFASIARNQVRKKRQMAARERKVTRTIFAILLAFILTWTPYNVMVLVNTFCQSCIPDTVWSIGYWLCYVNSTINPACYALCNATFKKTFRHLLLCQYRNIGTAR
Assay: human FLIPR-based M4 PAM assay (CHO-K1 cells with human M4 receptor and Gαqi5, calcium dye fluorescence)
Format: cell-based
Settings: inflection point of 4 parameter logistic fit; acetylcholine added at 20% of maximum response; read-out: M4PAM IP
In short: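 CHO-K1 cells were loaded with calcium dye at 37 °C for ~1 h. Fluorescence (ex 470–495/em 515–575 nm) was read for 4 min after test compound at increasing concentrations, then 3.5 min after acetylcholine at an EC20; sometimes a third addition at EC70 followed. The value is the inflection point of a 4-parameter logistic fit.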

Row | Compound | pEC50
1 | CC(C)(Cn1cc(-c2ccc(C#N)nc2-c2ccn3ccnc3c2)cn1)C(F)(F)F [Example 44, 6-(imidazo[1,2-a]pyridin-7-yl)-5-(1-(3,3,3-trifluoro-2,2-dimethylpropyl)-1H-pyrazol-4-yl)picolinonitrile] | 7.55
2 | CC(C)CCn1cc(-c2ccc(Cl)nc2-c2ccc3c(c2)C(=O)N(Cc2ccccn2)C3)cn1 [Example 112, 6-{6-chloro-3-[1-(3-methylbutyl)-1H-pyrazol-4-yl]pyridin-2-yl}-2-(pyridin-2-ylmethyl)-2,3-dihydro-1H-isoindol-1-one] | 7.22
3 | Cc1cn2ccc(-c3nc(C#N)ccc3-c3cnn(CC(C)(C)C)c3)cc2n1 [Example 81, 5-[1-(2,2-dimethylpropyl)-1H-pyrazol-4-yl]-6-(2-methylimidazo[1,2-a]pyridin-7-yl)pyridine-2-carbonitrile] | 7.61
4 | Cc1nc2cc(-c3nc(C#N)ccc3-c3cnn(CC4(C(C)(F)F)CC4)c3)ccc2n1C [Example 62, 5-(1-{[1-(1,1-difluoroethyl)cyclo-propyl]methyl}-1H-pyrazol-4-yl)-6-(1,2-dimethyl-1H-benzimidazol-5-yl)pyridine-2-carbonitrile] | 7.18
5 | Cc1cn2ccc(-c3nc(C#N)ccc3-c3cnn(CCC(F)(F)F)c3)cc2n1 [Example 40, 6-(2-methylimidazo[1,2-a]pyridin-7-yl)-5-[1-(3,3,3-trifluoropropyl)-1H-pyrazol-4-yl]pyridine-2-carbonitrile] | 6.85
6 | Cc1nc2cc(-c3ncc(F)cc3-c3cnn(CC(C)(C)C(C)(F)F)c3)ccc2n1C [Example 103, 5-(3-(1-(3,3-difluoro-2,2-dimethylbutyl)-1H-pyrazol-4-yl)-5-fluoropyridin-2-yl)-1,2-dimethyl-1H-benzo[d]imidazole] | 6.93
7 | CSc1cnc(-c2ccc3c(c2)C(=O)NC3)c(-c2cnn(CCC(C)C)c2)c1 [Example 137, 6-(3-(1-isopentyl-1H-pyrazol-4-yl)-5-(methylthio)pyridin-2-yl)isoindolin-1-one] | 6.46
8 | Cc1ccc(-c2cnn(CC34CCC(CC3)CC4)c2)c(-c2ccc3c(c2)C(=O)N(CC2CC2)C3)n1 [Example 12, 6-{3-[1-(bicyclo[2.2.2]oct-1-ylmethyl)-1H-pyrazol-4-yl]-6-methylpyridin-2-yl}-2-(cyclopropylmethyl)-2,3-dihydro-1H-isoindol-1-one] | 7.61
9 | Cc1cn2ccc(-c3nc(C#N)ccc3-c3cnn(CC(C)C(F)(F)F)c3)cc2n1 (centres unmarked) [Example 126, 6-(2-methylimidazo [1,2-a]pyridin-7-yl)-5-(1-(3,3,3-trifluoro-2-methylpropyl)-1H-pyrazol-4-yl)picolinonitrile] | 7.41
10 | CC(C)CCn1cc(-c2ccc(Cl)nc2-c2ccc3c(c2)C(=O)NC3)cn1 [Example 110, 6-(6-chloro-3-(1-isopentyl-1H-pyrazol-4-yl)pyridin-2-yl)isoindolin-1-one] | 7.40
11 | CC(C)(C)Cn1cc(-c2ccc(C#N)nc2-c2ccn3c(Cl)cnc3c2)cn1 [Example 117, 6-(3-chloroimidazo[1,2-a]pyridin-7-yl)-5-(1-neopentyl-1H-pyrazol-4-yl)picolinonitrile] | 7.48
12 | Cc1cn2ccc(-c3nc(C#N)ccc3-c3cnn(CC(C)(O)C(F)(F)F)c3)cc2n1 (centres unmarked) [Example 125, 6-(2-methylimidazo[1,2-a]pyridin-7-yl)-5-(1-(3,3,3-trifluoro-2-hydroxy-2-methylpropyl)-1H-pyrazol-4-yl)picolinonitrile] | 6.79
13 | CN1Cc2ccc(-c3nc(C#N)ccc3-c3cnn(CC4(C)CC4)c3)cc2C1=O [Example 50, 5-{1-[(1-methylcyclopropyl)methyl]-1H-pyrazol-4-yl}-6-(2-methyl-3-oxo-2,3-dihydro-1H-isoindol-5-yl)pyridine-2-carbonitrile] | 7.29
14 | Cc1cn2ccc(-c3nc(C#N)ccc3-c3cnn(CC(C)(C)CO)c3)cc2n1 [Example 127, 5-(1-(3-hydroxy-2,2-dimethylpropyl)-1H-pyrazol-4-yl)-6-(2-methylimidazo[1,2-a]pyridin-7-yl)picolinonitrile] | 6.86
15 | Cc1cn2ccc(-c3nc(C#N)ccc3-c3cnn(CC4(C(F)F)CC4)c3)cc2n1 [Example 58, 5-(1-{[1-(difluoromethyl)cyclo-propyl]methyl}-1H-pyrazol-4-yl)-6-(2-methylimidazo[1,2-a]pyridin-7-yl)pyridine-2-carbonitrile] | 7.31
16 | Cc1nc2cc(-c3nc(C#N)ccc3-c3cnn(CC(C)(F)C(C)(F)F)c3)ccc2n1C (centres unmarked) [Example 33, 6-(1,2-dimethyl-1H-benzimidazol-5-yl)-5-[1-(2,3,3-trifluoro-2-methylbutyl)-1H-pyrazol-4-yl]pyridine-2-carbonitrile] | 7.29

Row | Compound | pEC50
17 | CN1Cc2ccc(-c3nc(C#N)ccc3-c3cnn(CC4(C(F)(F)F)CC4)c3)cc2C1=O [Example 52, 6-(2-methyl-3-oxoisoindolin-5-yl)-5-(1-((1-(trifluoromethyl)cyclopropyl)methyl)-1H-pyrazol-4-yl)picolinonitrile] | 7.68
18 | CC(C)(C)Cn1cc(-c2ccc(C(F)(F)F)nc2-c2ccn3ccnc3c2)cn1 [Example 83, 7-{3-[1-(2,2-dimethylpropyl)-1H-pyrazol-4-yl]-6-(trifluoromethyl)pyridin-2-yl}imidazo[1,2-a]pyridine] | 7.34
19 | CC(C)(C)Cn1cc(-c2ccc(OC(F)(F)F)nc2-c2ccn3ccnc3c2)cn1 [Example 100, 7-{3-[1-(2,2-dimethylpropyl)-1H-pyrazol-4-yl]-6-(trifluoromethoxy)pyridin-2-yl}imidazo [1,2-a]pyridine] | 6.68
20 | Cc1ccc(-c2cnn(Cc3ccccc3)c2)c(-c2ccc3c(c2)C(=O)N(CC2CC2)C3)n1 [Example 11, 6-[3-(1-benzyl-1H-pyrazol-4-yl)-6-methylpyridin-2-yl]-2-(cyclopropylmethyl)-2,3-dihydro-1H-isoindol-1-one] | 6.87
21 | Cc1cn2ccc(-c3nc(C#N)ccc3-c3cnn(CC(C)(F)F)c3)cc2n1 [Example 20, 5-[1-(2,2-difluoropropyl)-1H-pyrazol-4-yl]-6-(2-methylimidazo[1,2-a]pyridin-7-yl)pyridine-2-carbonitrile] | 6.84
22 | CC(C)(C)Cn1cc(-c2ccc(C#N)nc2-c2ccc3nn[nH]c3c2)cn1 [Example 79, 6-(1H-benzotriazol-6-yl)-5-[1-(2,2-dimethylpropyl)-1H-pyrazol-4-yl]pyridine-2-carbonitrile] | 7.42
23 | Cc1nc2cc(-c3nc(C#N)ccc3-c3cnn(CC(C)(C)CC(F)F)c3)ccc2n1C [Example 34, 5-[1-(4,4-difluoro-2,2-dimethylbutyl)-1H-pyrazol-4-yl]-6-(1,2-dimethyl-1H-benzimidazol-5-yl)pyridine-2-carbonitrile] | 7.27
24 | CC(C)(C)Cn1cc(-c2cc(F)cnc2-c2ccn3ccnc3c2)cn1 [Example 80, 7-{3-[1-(2,2-dimethylpropyl)-1H-pyrazol-4-yl]-5-fluoropyridin-2-yl}imidazo[1,2-a]pyridine] | 7.01
25 | N#Cc1ccc(-c2cnn(CC(F)(F)C3CC3)c2)c(-c2ccn3ccnc3c2)n1 [Example 1, 5-(1-(2-cyclopropyl-2,2-difluoroethyl)-1H-pyrazol-4-yl)-6-(imidazo[1,2-a]pyridin-7-yl)picolinonitrile] | 7.23
26 | Cc1cn2ccc(-c3nc(C#N)ccc3-c3cnn(CC(F)C(F)(F)F)c3)cc2n1 (centres unmarked) [Example 41, 6-(2-methylimidazo[1,2-a]pyridin-7-yl)-5-[1-(2,3,3,3-tetrafluoropropyl)-1H-pyrazol-4-yl]pyridine-2-carbonitrile] | 7.21
27 | Cc1cn2ccc(-c3nc(C#N)ccc3-c3cnn(CCC(F)(F)C(F)(F)F)c3)cc2n1 [Example 29, 6-(2-methylimidazo[1,2-a]pyridin-7-yl)-5-[1-(3,3,4,4,4-pentafluorobutyl)-1H-pyrazol-4-yl]pyridine-2-carbonitrile] | 7.01
28 | CC(C)CCn1cc(-c2cccnc2-c2ccc3c(c2)C(=O)N(C2CCC2)C3)cn1 [Example 116, 2-cyclobutyl-6-{3-[1-(3-methylbutyl)-1H-pyrazol-4-yl]pyridin-2-yl}-2,3-dihydro-1H-isoindol-1-one] | 7.07
29 | Cc1nc2cc(-c3nc(C#N)ccc3-c3cnn(CC(C)(C)C(F)(F)F)c3)ccn2n1 [Example 101, 6-(2-methyl[1,2,4]triazolo [1,5-a]pyridin-7-yl)-5-[1-(3,3,3-trifluoro-2,2-dimethylpropyl)-1H-pyrazol-4-yl]pyridine-2-carbonitrile] | 7.24
30 | Cc1cn2ccc(-c3nc(C#N)ccc3-c3cnn(CC(F)(F)C(F)(F)C(F)F)c3)cc2n1 [Example 23, 5-[1-(2,2,3,3,4,4-hexafluorobutyl)-1H-pyrazol-4-yl]-6-(2-methylimidazo[1,2-a]pyridin-7-yl)pyridine-2-carbonitrile] | 7.37
31 | N#Cc1ccc(-c2cnn(CC(F)C3CC3)c2)c(-c2ccn3ccnc3c2)n1 (centres unmarked) [Example 124, 5-(1-(2-cyclopropyl-2-fluoroethyl)-1H-pyrazol-4-yl)-6-(imidazo[1,2-a]pyridin-7-yl)picolinonitrile] | 7.22

Same assay, conditions: read-out: HuM4PAM

Row | Compound | pEC50
32 | CC(C)(F)Cn1cc(-c2ccc(C#N)nc2-c2ccn3ccnc3c2)cn1 [Example 121, 5-(1-(2-fluoro-2-methylpropyl)-1H-pyrazol-4-yl)-6-(imidazo[1,2-a]pyridin-7-yl)picolinonitrile] | 6.97

— patent publication US11339156B2, “3-(1H-pyrazol-4-yl)pyridine allosteric modulators of the M4 muscarinic acetylcholine receptor” (Merck Sharp & Dohme Corp., priority 2017, dated 2022)
